From ChEMBL document CHEMBL1122249, “Synthesis of hypoxanthine, guanine, and 6-thiopurine nucleosides of 6-deoxy-D-allofuranose” (1983)

How the values were obtained:
[1] = tested on: Mus musculus; assay: Survivors after the treatment with 50 mg/kg dose for 5 days in 6 mice; format: functional
[2] = tested on: Mus musculus; assay: Average weight change in mouse after the treatment with 200 mg/kg dose of the compound; format: functional
[3] = tested on: Mus musculus; assay: Survivors after the treatment with 12.5 mg/kg dose for 5 days in 6 mice; format: functional
[4] = tested on: Mus musculus; assay: Average weight change in mouse after the treatment with 100 mg/kg dose of the compound; format: functional
[5] = tested on: Mus musculus; assay: Average weight change in mouse after the treatment with 50 mg/kg dose of the compound; format: functional
[6] = tested on: Mus musculus; assay: Survivors after the treatment with 100 mg/kg dose for 5 days in 6 mice; format: functional
[7] = tested on: L1210; assay: Median survival time of inhibitory activity against L1210 tumor cells in mouse at the dose of 25 mg/kg; format: functional
[8] = tested on: Mus musculus; assay: Survivors after the treatment with 200 mg/kg dose for 5 days in 6 mice; format: functional
[9] = tested on: Mus musculus; assay: Average weight change in mouse after the treatment with 12.5 mg/kg dose of the compound; format: functional
[10] = tested on: L1210; assay: Median survival time of inhibitory activity against L1210 tumor cells in mouse at the dose of 100 mg/kg; format: functional
[11] = tested on: Mus musculus; assay: Survivors after the treatment with 25 mg/kg dose for 5 days in 6 mice; format: functional
[12] = tested on: L1210; assay: Median survival time of inhibitory activity against L1210 tumor cells in mice at the dose of 200 mg/kg; format: functional, Mus musculus
[13] = tested on: L1210; assay: Median survival time of inhibitory activity against L1210 tumor cells in mouse at the dose of 50 mg/kg; format: functional
[14] = tested on: L1210; assay: Median survival time of inhibitory activity against L1210 tumor cells in mouse at the dose of 12.5 mg/kg; format: functional
[15] = tested on: Mus musculus; assay: Average weight change in mouse after the treatment with 25 mg/kg dose of the compound; format: functional

CC(O)[C@H]1O[C@@H](n2cnc3c(S)ncnc32)[C@H](O)[C@@H]1O (stereo not given in full)
Survivors [1]: 6 | Average weight change [2]: -4.4 | Survivors [3]: 6 | Average weight change [4]: -3.6 | Average weight change [5]: -1.7 | Survivors [6]: 6 | T/C [7]: 116% | Survivors [8]: 6 | Average weight change [9]: -1 | T/C [10]: 146% | Survivors [11]: 6 | T/C [12]: 148% | T/C [13]: 142% | T/C [14]: 107% | Average weight change [15]: -1.4
